Experimental data from ChEMBL document CHEMBL5532646, “Discovery of 4-(N-dithiobenzyl piperazine)-1,8-naphthalimide as a potent multi-target antitumor agent with good efficacy, limited toxicity, and low resistance” (Eur J Med Chem, 2024).
Activity calls are given as the source filed them. No cut-off for these calls is given here.

Key:
T-24 [1] = test: Antiproliferative activity against human T24 cells xenografted in nude mouse model assessed as tumor inhibition rate at 5 mg/kg, ip administered once every two days for 21 days relative to control; type: functional; settings: T-24, 504 h, time 21 day
HepG2 [2] = test: Antiproliferative activity against human HepG2 cells xenografted in nude mouse model assessed as tumor inhibition rate at 15 mg/kg, ip administered once every two days for 21 days relative to control; type: functional; settings: HepG2, 504 h, time 21 day
HepG2 [3] = test: Antiproliferative activity against human HepG2 cells incubated for 48 hrs by MTT assay; type: functional, cell-based; settings: HepG2, 48 h
SK-OV-3 [4] = test: Antiproliferative activity against human SK-OV-3 cells xenografted in nude mouse model assessed as tumor inhibition rate at 5 mg/kg, ip administered once every two days for 21 days relative to control; type: functional; settings: SK-OV-3, 504 h, time 21 day
[5] = Toxicity in nude mouse model xenografted with human SK-OV-3 cells assessed as pathological change in spleen at 15 mg/kg, ip administered once every two days for 21 days; type: organism-based; settings: in vivo, 504 h, time 21 day
A549 = test: Antiproliferative activity against human A549 cells incubated for 48 hrs by MTT assay; type: functional, cell-based
SK-OV-3 [6] = test: Antiproliferative activity against human SK-OV-3 cells xenografted in nude mouse model assessed as tumor inhibition rate at 15 mg/kg, ip administered once every two days for 21 days relative to control; type: functional; settings: SK-OV-3, 504 h, time 21 day
T-24 [7] = test: Antiproliferative activity against human T24 cells incubated for 48 hrs by MTT assay; type: functional, cell-based; settings: T-24, 48 h
[8] = Toxicity in nude mouse model xenografted with human HepG2 cells assessed as pathological change in spleen at 5 to 15 mg/kg, ip administered once every two days for 21 days; type: organism-based; settings: in vivo, 504 h, dose 5-15 mg/kg, time 21 day
SK-OV-3 [9] = test: Antiproliferative activity against human SK-OV-3 cells xenografted in nude mouse model assessed as tumor inhibition rate administered intraperitoneally once every two days for 21 days; type: functional, cell-based; settings: dose 15.0 mg/kg, route ip, time 21.0 day
[10] = Toxicity in nude mouse model xenografted with human SK-OV-3 cells assessed as pathological change in heart at 15 mg/kg, ip administered once every two days for 21 days; type: organism-based; settings: in vivo, 504 h, time 21 day
[11] = Toxicity in nude mouse model xenografted with human HepG2 cells assessed as pathological change in heart at 5 to 15 mg/kg, ip administered once every two days for 21 days; type: organism-based; settings: in vivo, 504 h, dose 5-15 mg/kg, time 21 day
A549/CDDP = test: Antiproliferative activity against human A549/DDP cells incubated for 48 hrs by MTT assay; type: functional, cell-based
SK-OV-3 [12] = test: Antiproliferative activity against human SK-OV-3 cells incubated for 48 hrs by MTT assay; type: functional, cell-based; settings: SK-OV-3, 48 h
[13] = Toxicity in nude mouse model xenografted with human T24 cells assessed as pathological change in spleen at 5 to 15 mg/kg, ip administered once every two days for 21 days; type: organism-based, T-24; settings: in vivo, 504 h, dose 5-15 mg/kg, time 21 day
[14] = Toxicity in nude mouse model xenografted with human SK-OV-3 cells assessed as pathological change in liver at 15 mg/kg, ip administered once every two days for 21 days; type: organism-based; settings: in vivo, 504 h, time 21 day
[15] = Toxicity in nude mouse model xenografted with human T24 cells assessed as pathological change in liver at 5 to 15 mg/kg, ip administered once every two days for 21 days; type: organism-based, T-24; settings: in vivo, 504 h, dose 5-15 mg/kg, time 21 day
[16] = Toxicity in nude mouse model xenografted with human HepG2 cells assessed as pathological change in lung at 5 to 15 mg/kg, ip administered once every two days for 21 days; type: organism-based; settings: in vivo, 504 h, dose 5-15 mg/kg, time 21 day
[17] = Toxicity in nude mouse model xenografted with human SK-OV-3 cells assessed as pathological change in lung at 15 mg/kg, ip administered once every two days for 21 days; type: organism-based; settings: in vivo, 504 h, time 21 day
T-24 [18] = test: Antiproliferative activity against human T24 cells xenografted in nude mouse model assessed as tumor inhibition rate at 15 mg/kg, ip administered once every two days for 21 days relative to control; type: functional; settings: T-24, 504 h, time 21 day
[19] = Toxicity in nude mouse model xenografted with human T24 cells assessed as pathological change in heart at 5 to 15 mg/kg, ip administered once every two days for 21 days; type: organism-based, T-24; settings: in vivo, 504 h, dose 5-15 mg/kg, time 21 day
HepG2 [20] = test: Antiproliferative activity against human HepG2 cells xenografted in nude mouse model assessed as tumor inhibition rate at 5 mg/kg, ip administered once every two days for 21 days relative to control; type: functional; settings: HepG2, 504 h, time 21 day
MGC-803 = test: Antiproliferative activity against human MGC-803 cells incubated for 48 hrs by MTT assay; type: functional, cell-based; settings: MGC-803, 48 h
[21] = Toxicity in nude mouse model xenografted with human T24 cells assessed as pathological change in lung at 5 to 15 mg/kg, ip administered once every two days for 21 days; type: organism-based, T-24; settings: in vivo, 504 h, dose 5-15 mg/kg, time 21 day
[22] = Toxicity in nude mouse model xenografted with human HepG2 cells assessed as pathological change in liver at 5 to 15 mg/kg, ip administered once every two days for 21 days; type: organism-based; settings: in vivo, 504 h, dose 5-15 mg/kg, time 21 day

Question: For `CN(C)CCN1C(=O)c2cccc3cc(N)cc(c23)C1=O` [AMONAFIDE], which inhibition in vivo at 5 mg/kg (T-24 [1]) is on record?
Answer: 70.6%

Question: And the inhibition in vivo at 15 mg/kg (HepG2 [2])?
Answer: 62%

Question: And the IC50 (HepG2 [3])?
Answer: 7940 nM

Question: What about the inhibition in vivo at 5 mg/kg (SK-OV-3 [4]) of the same compound?
Answer: 62.1%

Question: What does the source list for `CNCCCN1C(=O)c2cccc3c(N4CCN(C(=S)SCc5ccccc5)CC4)ccc(c23)C1=O`?
Answer: Activity [5]: Non-Toxic; Activity (A549): Active; inhibition in vivo at 15 mg/kg (SK-OV-3 [6]): 53.1%; IC50 (T-24 [7]): 590 nM; Activity [8]: Non-Toxic; inhibition in vivo at 5 mg/kg (T-24 [1]): 55.1%; inhibition (SK-OV-3 [9]): Dose-Dependent Effect; Activity [10]: Non-Toxic; inhibition in vivo at 15 mg/kg (HepG2 [2]): 58.8%; Activity [11]: Non-Toxic; Activity (A549/CDDP): Active; IC50 (HepG2 [3]): 1540 nM; IC50 (SK-OV-3 [12]): 1070 nM; Activity [13]: Non-Toxic; Activity [14]: Non-Toxic; Activity [15]: Non-Toxic; Activity [16]: Non-Toxic; Activity [17]: Non-Toxic; inhibition in vivo at 15 mg/kg (T-24 [18]): 57.1%; Activity [19]: Non-Toxic; inhibition in vivo at 5 mg/kg (HepG2 [20]): 53%; IC50 (MGC-803): 3040 nM; Activity [21]: Non-Toxic; Activity [22]: Non-Toxic

Question: Which Activity (A549) does the source give for `CN(C)CCN1C(=O)c2cccc3c(N4CCN(C(=O)c5ccccc5)CC4)ccc(c23)C1=O` here?
Answer: Active

Question: What about the IC50 (T-24 [7]) of the same compound?
Answer: 2080 nM

Question: What about the Activity [8] of the same compound?
Answer: Non-Toxic

Question: And the inhibition in vivo at 5 mg/kg (T-24 [1])?
Answer: 55%

Question: What about the inhibition in vivo at 15 mg/kg (HepG2 [2]) of the same compound?
Answer: 54.5%

Question: And the Activity [11]?
Answer: Non-Toxic

Question: And the Activity (A549/CDDP)?
Answer: Active

Question: And the IC50 (HepG2 [3])?
Answer: 4780 nM

Question: What about the IC50 (SK-OV-3 [12]) of the same compound?
Answer: 2010 nM

Question: And the Activity [13]?
Answer: Non-Toxic

Question: And the Activity [15]?
Answer: Non-Toxic

Question: What about the Activity [16] of the same compound?
Answer: Non-Toxic

Question: And the inhibition in vivo at 15 mg/kg (T-24 [18])?
Answer: 64.5%

Question: What about the Activity [19] of the same compound?
Answer: Non-Toxic

Question: And the inhibition in vivo at 5 mg/kg (HepG2 [20])?
Answer: 51.5%

Question: And the IC50 (MGC-803)?
Answer: 5730 nM

Question: What about the Activity [21] of the same compound?
Answer: Non-Toxic

Question: And the Activity [22]?
Answer: Non-Toxic
